According to patent US20210379589A1, “Microfluidic Chip For Analysis Of Cell Motility And Methods For Using Same” (The Johns Hopkins University, priority 2013, published 2021):

Legend:
MDA-MB-231 cells = assay: Microchannel migration device assay, MDA-MB-231 cells; format: cell-based, human
Method: Cell seeding and live cell migration experiments: Cells were grown to continency, trypsinized, and resuspended in serum-free medium at 2×10^6 cells/ml. 50 μl of cell suspension was added to the cell inlet well. Cells were incubated in the device for 5-10 minutes at 37° C. to allow initial cell seeding at the base of “Y” channels. The cell suspension was then removed from the cell inlet port. The device was washed with DPBS before the addition of medium to the inlet ports of the device. In select experiments, PI3K activity was inhibited by the addition of 10 μM LY294002 in the medium through the entire course of migration. The migration chamber was moved to a temperature- and CO2-controlled stage-top live cell incubator (Okolab, Italy) mounted on the motorized stage of an inverted Nikon Eclipse Ti microscope (Nikon, Tokyo, Japan) with automated controls (NIS-Elements, Nikon). Migrating cells were imaged with a 10×-magnification phase contrast objective every 10 minutes for up to 16 hours. Analysis of Cell Migration: Video tiles were exported to Image1 for analysis. All cells that entered the channel were tracked while fully inside the channel and before reaching either end of the channel using the lmageJ MTrackJ plugin at 10 minute intervals. Cells were also dynamically traced with the imageJ polygon ROI capability at 30 minute intervals. Dividing cells were not tracked. Cell position data were used to calculate cell speed over each 10 minute interval, and these speeds were averaged to get an overall average speed for each cell. Additionally, the chemotactic index, defined as the cell displacement divided by the total distance travelled by the cell, was calculated. Cell shape data were used to calculate cell circularity and fit elliptical angle using the Measure function in ImageJ Statistical significance was assessed with non-paired Student's t-test. Cells were further defined as migratory or non-migratory. Migratory cells were defined as those cells which reached the bifurcation in the Y-shaped microchannel; all other cells were defined as non-migratory. […]

Hs578t cells = assay: Microchannel migration device assay, Hs578t cells; format: cell-based; conditions: 10 μM LY294002, 400 μm-long Y-shaped migration channels; control 20±7%
Method: (§1) Cell seeding and live cell migration experiments: Cells were grown to continency, trypsinized, and resuspended in serum-free medium at 2×10^6 cells/ml. 50 μl of cell suspension was added to the cell inlet well. Cells were incubated in the device for 5-10 minutes at 37° C. to allow initial cell seeding at the base of “Y” channels. The cell suspension was then removed from the cell inlet port. The device was washed with DPBS before the addition of medium to the inlet ports of the device. In select experiments, PI3K activity was inhibited by the addition of 10 μM LY294002 in the medium through the entire course of migration. The migration chamber was moved to a temperature- and CO2-controlled stage-top live cell incubator (Okolab, Italy) mounted on the motorized stage of an inverted Nikon Eclipse Ti microscope (Nikon, Tokyo, Japan) with automated controls (NIS-Elements, Nikon). Migrating cells were imaged with a 10×-magnification phase contrast objective every 10 minutes for up to 16 hours. Analysis of Cell Migration: Video tiles were exported to Image1 for analysis. All cells that entered the channel were tracked while fully inside the channel and before reaching either end of the channel using the lmageJ MTrackJ plugin at 10 minute intervals. Cells were also dynamically traced with the imageJ polygon ROI capability at 30 minute intervals. Dividing cells were not tracked. […]

Bt549 cells = assay: Microchannel migration device assay, Bt549 cells; format: cell-based; conditions: 10 μM LY294002, 400 μm-long Y-shaped migration channels; control 32±8%
Method: as §1

## O=c1cc(N2CCOCC2)oc2c(-c3ccccc3)cccc12 [LY294002]
MDA-MB-231 cells; 10 μM LY294002, 200 μm-long microchannels, control 25%
  migratory cell population: 65%
MDA-MB-231 cells; 10 μM LY294002, 200 μm-long microchannels, control 66%
  ratio of contact guided cells: 93%
MDA-MB-231 cells; 10 μM LY294002, 400 μm-long Y-shaped migration channels, control 22±3%
  percentage of migratory cells: 34±8%
Hs578t cells
  percentage of migratory cells: 15±2%
Bt549 cells
  percentage of migratory cells: 19±1%
